These are literature values, as cited in patent US10427959B2, “Method and system for the autonomous self-limiting generation of chlorine dioxide” (TRUOX, INC., priority 2016, dated 2019).

Read-outs that look alike come from different tables or passages of the source.

The conditions of the data set: saturated aqueous solution.

For `CC1(C)C(=O)N(Cl)C(=O)N1Br` [BCDMH, 1,3-bromo-chloro-5,5-dimethylhydantoin], the solubility (at 25° C.) is listed as 0.2 wt %. Turning to `CC1(C)C(=O)N(Br)C(=O)N1Br` [DBDMH, 1,3-dibromo-5,5-dimethylhydantoin], where the note is “at 20° C.”, the solubility is recorded as 0.1 wt %.
